The record followed here is ChEMBL document CHEMBL5696441 (Nat Chem Biol, 2011).

Assay [1] addresses Death-associated protein kinase 1 (Homo sapiens) (UniProt P53355). Briefly: Inhibition of DAPK1 (unknown origin) assessed as remaining activity at 1 uM by Kinome scan method relative to control.
Assay [2] concerns the target T1, Serine/threonine-protein kinase PLK4 (Homo sapiens) (UniProt O00444).
T1 sequence (whole entry): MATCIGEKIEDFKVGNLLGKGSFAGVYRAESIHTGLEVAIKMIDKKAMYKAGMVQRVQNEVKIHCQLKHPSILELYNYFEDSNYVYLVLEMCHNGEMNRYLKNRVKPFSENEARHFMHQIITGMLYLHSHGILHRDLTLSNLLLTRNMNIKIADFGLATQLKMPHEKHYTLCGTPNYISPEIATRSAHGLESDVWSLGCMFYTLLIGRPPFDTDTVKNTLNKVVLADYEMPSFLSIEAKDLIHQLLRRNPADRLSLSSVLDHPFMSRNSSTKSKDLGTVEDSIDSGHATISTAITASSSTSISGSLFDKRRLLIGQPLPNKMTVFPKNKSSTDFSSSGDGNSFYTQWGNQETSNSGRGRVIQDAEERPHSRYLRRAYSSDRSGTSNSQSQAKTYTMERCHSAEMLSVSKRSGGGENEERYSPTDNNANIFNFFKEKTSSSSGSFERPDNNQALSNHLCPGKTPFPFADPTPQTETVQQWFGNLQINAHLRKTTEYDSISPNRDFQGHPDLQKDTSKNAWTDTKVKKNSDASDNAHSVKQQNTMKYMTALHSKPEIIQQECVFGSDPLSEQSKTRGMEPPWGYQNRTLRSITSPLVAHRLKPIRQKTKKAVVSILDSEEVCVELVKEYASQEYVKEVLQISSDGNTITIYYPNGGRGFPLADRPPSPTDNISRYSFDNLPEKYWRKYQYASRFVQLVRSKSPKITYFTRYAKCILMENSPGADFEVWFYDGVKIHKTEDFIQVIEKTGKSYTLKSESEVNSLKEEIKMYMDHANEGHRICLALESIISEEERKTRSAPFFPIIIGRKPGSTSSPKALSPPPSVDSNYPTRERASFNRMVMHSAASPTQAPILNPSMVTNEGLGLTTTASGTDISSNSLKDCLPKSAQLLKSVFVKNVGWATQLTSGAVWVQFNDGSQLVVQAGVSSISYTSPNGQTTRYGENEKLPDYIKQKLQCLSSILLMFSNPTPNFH
Briefly: Inhibition of PLK4 (unknown origin) assessed as remaining activity at 1 uM by Kinome scan method relative to control.

The target in assay [3] is T2, Myosin light chain kinase (Homo sapiens) (UniProt Q32MK0).
T2 sequence (whole entry): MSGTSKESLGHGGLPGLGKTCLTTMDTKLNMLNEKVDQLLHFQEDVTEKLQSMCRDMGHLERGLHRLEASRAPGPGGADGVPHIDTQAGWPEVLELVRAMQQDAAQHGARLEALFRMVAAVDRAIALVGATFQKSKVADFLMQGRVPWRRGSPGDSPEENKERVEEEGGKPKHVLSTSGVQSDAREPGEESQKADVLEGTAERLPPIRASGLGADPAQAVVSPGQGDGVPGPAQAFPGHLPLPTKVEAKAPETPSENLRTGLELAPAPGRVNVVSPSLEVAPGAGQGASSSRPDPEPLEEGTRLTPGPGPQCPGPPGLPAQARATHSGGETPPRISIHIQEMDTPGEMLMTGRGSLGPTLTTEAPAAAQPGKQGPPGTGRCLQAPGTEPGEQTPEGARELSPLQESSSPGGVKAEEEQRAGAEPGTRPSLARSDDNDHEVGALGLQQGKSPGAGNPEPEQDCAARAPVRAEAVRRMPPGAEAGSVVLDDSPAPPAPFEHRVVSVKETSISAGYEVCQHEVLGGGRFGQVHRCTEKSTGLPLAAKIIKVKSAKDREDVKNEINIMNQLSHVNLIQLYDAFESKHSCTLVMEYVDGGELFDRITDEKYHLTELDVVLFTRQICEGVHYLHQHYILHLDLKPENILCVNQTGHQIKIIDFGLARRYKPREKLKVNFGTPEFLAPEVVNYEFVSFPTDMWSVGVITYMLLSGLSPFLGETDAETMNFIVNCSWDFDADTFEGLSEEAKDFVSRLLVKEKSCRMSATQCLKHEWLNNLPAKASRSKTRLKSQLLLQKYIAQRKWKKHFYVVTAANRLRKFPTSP
Briefly: Inhibition of MLCK (unknown origin) assessed as remaining activity at 1 uM by Kinome scan method relative to control.

Assay [4] deals with Serine/threonine-protein kinase LATS1 (Homo sapiens) (UniProt O95835). The experiment in a line: Inhibition of LATS1 (unknown origin) assessed as remaining activity at 1 uM by Kinome scan method relative to control.
Assay [5] concerns the target Insulin receptor-related protein (Homo sapiens) (UniProt P14616). The experiment in a line: Inhibition of INSRR (unknown origin) assessed as remaining activity at 1 uM by Kinome scan method relative to control.
The target of assay [6] is Serine/threonine-protein kinase pim-2 (Homo sapiens) (UniProt Q9P1W9). Briefly: Inhibition of PIM2 (unknown origin) assessed as remaining activity at 1 uM by Kinome scan method relative to control.
The target in assay [7] is T3, Myotonin-protein kinase (Homo sapiens) (UniProt Q09013).
T3 sequence (whole entry): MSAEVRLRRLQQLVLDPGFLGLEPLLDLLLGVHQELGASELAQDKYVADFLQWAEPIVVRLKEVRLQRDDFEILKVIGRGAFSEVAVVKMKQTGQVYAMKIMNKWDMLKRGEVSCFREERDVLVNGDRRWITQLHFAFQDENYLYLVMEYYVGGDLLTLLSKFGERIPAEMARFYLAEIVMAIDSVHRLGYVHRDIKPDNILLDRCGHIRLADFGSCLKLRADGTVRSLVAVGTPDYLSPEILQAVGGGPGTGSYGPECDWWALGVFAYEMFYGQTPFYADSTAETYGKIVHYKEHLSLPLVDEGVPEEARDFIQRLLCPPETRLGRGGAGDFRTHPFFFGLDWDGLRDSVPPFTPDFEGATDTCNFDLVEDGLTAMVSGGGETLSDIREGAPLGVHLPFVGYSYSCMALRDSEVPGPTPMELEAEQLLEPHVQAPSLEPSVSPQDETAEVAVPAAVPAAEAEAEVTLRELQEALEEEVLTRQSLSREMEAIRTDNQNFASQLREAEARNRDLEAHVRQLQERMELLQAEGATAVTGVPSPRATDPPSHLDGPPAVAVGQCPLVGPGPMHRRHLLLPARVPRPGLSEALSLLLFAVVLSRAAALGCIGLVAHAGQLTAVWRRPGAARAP
The experiment in a line: Inhibition of DMPK (unknown origin) assessed as remaining activity at 1 uM by Kinome scan method relative to control.

Assay [8] deals with Phosphatidylinositol 4,5-bisphosphate 3-kinase catalytic subunit gamma isoform (Homo sapiens) (UniProt P48736). Briefly: Inhibition of PIK3CG (unknown origin) assessed as remaining activity at 1 uM by Kinome scan method relative to control.
For assay [9], the system named is Tyrosine-protein kinase ABL1 (Homo sapiens), P00519 [F317L]. The experiment in a line: Inhibition of ABL1 F317L mutant (unknown origin) assessed as remaining activity at 1 uM by Kinome scan method relative to control.
Sequence of Tyrosine-protein kinase ABL1 (Homo sapiens), P00519 [F317L] (P00519 whole entry F317L): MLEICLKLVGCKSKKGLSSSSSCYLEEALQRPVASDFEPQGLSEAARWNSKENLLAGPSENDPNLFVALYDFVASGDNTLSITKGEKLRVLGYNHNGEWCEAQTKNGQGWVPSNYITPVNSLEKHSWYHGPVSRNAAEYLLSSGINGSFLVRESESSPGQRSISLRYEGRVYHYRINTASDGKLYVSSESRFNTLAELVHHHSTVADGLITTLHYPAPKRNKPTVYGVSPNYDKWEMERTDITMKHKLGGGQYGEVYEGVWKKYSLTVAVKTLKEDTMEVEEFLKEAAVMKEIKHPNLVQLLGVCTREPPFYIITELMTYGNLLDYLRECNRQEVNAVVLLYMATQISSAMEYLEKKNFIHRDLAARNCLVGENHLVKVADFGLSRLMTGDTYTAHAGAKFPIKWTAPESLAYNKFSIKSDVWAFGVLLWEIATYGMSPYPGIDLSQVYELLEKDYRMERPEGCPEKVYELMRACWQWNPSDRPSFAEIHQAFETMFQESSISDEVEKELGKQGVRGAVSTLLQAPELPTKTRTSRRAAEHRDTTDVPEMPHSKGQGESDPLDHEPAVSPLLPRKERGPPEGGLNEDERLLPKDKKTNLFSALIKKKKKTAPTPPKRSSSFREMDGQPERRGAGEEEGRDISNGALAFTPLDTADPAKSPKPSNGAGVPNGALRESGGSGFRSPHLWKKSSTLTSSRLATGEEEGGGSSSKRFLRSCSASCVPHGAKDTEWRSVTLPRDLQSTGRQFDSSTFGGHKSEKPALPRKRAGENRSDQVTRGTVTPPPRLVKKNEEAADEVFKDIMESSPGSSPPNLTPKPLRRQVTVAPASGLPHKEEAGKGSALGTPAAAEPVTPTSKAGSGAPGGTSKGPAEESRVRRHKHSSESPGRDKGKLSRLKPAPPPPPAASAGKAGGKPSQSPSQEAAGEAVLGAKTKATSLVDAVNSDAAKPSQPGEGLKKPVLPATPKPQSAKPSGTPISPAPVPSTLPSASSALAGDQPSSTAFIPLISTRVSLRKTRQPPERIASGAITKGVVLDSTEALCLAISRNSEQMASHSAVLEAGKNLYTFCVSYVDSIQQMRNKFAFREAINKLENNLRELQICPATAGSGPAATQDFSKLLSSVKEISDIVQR

Sequence of Phosphatidylinositol 4,5-bisphosphate 3-kinase catalytic subunit gamma isoform (Homo sapiens) (P48736 whole entry, looked up, canonical isoform): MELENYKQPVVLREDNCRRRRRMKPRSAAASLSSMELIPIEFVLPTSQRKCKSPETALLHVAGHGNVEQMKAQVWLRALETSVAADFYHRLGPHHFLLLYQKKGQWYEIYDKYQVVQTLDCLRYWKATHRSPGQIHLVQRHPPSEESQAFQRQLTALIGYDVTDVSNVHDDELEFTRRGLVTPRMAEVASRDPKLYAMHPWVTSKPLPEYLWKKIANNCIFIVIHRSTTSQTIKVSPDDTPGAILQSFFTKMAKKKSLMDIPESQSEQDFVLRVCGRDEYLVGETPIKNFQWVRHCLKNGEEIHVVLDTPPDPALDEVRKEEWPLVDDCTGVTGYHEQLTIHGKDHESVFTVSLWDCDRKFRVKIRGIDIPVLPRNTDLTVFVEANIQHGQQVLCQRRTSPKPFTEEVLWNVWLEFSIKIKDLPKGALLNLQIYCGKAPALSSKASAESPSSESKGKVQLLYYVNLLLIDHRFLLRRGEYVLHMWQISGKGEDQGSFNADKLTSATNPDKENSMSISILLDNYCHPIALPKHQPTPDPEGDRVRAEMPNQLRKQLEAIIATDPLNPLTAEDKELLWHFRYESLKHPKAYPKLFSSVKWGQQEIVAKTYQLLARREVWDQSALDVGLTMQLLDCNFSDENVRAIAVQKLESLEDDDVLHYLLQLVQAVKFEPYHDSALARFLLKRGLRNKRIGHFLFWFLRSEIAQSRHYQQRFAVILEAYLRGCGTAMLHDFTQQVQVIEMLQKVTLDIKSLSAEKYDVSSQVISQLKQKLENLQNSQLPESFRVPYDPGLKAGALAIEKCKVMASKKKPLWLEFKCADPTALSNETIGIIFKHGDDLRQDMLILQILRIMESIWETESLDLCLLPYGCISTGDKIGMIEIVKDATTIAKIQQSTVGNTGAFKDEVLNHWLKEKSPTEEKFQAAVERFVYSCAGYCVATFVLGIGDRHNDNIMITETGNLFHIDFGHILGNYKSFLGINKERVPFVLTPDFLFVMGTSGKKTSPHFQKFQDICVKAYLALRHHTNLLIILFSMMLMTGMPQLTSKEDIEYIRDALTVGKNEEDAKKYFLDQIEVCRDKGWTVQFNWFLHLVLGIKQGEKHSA
Sequence of Serine/threonine-protein kinase pim-2 (Homo sapiens) (Q9P1W9 whole entry, looked up): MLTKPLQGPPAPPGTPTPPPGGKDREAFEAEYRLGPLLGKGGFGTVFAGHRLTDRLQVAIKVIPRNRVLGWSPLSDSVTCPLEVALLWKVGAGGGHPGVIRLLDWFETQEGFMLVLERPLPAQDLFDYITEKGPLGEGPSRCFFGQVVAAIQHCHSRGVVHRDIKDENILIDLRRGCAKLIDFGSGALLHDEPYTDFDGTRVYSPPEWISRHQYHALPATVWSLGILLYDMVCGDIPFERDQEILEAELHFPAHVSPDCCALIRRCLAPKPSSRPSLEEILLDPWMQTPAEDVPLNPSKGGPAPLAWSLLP
Sequence of Insulin receptor-related protein (Homo sapiens) (P14616 27-742 limits assumed): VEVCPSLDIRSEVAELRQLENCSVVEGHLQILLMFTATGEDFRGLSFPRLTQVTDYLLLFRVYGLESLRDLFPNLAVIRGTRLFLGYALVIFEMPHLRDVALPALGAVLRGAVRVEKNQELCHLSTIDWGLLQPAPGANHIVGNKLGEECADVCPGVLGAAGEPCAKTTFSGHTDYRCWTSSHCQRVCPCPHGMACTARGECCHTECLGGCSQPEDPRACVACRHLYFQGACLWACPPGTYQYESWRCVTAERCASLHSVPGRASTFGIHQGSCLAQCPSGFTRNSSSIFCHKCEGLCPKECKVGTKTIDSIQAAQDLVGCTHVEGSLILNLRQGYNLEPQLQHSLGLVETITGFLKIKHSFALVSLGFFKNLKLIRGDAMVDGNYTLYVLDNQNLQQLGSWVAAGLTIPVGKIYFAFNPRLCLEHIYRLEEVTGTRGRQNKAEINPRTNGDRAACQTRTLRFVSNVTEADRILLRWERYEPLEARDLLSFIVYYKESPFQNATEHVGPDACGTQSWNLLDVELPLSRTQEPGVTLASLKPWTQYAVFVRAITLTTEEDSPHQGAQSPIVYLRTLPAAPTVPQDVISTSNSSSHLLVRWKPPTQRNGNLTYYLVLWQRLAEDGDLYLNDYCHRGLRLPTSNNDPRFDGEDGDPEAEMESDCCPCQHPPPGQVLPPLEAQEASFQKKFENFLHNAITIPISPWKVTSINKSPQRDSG
Sequence of Insulin receptor-related protein (Homo sapiens) (P14616 747-1297 limits assumed): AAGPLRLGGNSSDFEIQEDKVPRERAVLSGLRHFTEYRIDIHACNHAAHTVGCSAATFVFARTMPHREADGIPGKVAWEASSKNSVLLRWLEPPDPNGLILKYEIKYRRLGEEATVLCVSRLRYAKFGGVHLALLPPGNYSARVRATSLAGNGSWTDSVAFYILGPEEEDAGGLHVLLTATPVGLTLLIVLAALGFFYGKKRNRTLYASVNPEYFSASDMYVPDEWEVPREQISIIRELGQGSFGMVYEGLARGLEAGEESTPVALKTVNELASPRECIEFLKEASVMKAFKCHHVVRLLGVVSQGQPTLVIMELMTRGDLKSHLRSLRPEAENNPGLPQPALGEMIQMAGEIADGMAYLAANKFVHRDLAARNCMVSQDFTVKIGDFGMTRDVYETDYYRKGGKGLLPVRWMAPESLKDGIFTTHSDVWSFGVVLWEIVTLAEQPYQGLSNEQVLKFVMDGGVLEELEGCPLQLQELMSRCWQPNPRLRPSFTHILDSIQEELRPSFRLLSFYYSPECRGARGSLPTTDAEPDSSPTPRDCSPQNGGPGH
Sequence of Serine/threonine-protein kinase LATS1 (Homo sapiens) (O95835 whole entry): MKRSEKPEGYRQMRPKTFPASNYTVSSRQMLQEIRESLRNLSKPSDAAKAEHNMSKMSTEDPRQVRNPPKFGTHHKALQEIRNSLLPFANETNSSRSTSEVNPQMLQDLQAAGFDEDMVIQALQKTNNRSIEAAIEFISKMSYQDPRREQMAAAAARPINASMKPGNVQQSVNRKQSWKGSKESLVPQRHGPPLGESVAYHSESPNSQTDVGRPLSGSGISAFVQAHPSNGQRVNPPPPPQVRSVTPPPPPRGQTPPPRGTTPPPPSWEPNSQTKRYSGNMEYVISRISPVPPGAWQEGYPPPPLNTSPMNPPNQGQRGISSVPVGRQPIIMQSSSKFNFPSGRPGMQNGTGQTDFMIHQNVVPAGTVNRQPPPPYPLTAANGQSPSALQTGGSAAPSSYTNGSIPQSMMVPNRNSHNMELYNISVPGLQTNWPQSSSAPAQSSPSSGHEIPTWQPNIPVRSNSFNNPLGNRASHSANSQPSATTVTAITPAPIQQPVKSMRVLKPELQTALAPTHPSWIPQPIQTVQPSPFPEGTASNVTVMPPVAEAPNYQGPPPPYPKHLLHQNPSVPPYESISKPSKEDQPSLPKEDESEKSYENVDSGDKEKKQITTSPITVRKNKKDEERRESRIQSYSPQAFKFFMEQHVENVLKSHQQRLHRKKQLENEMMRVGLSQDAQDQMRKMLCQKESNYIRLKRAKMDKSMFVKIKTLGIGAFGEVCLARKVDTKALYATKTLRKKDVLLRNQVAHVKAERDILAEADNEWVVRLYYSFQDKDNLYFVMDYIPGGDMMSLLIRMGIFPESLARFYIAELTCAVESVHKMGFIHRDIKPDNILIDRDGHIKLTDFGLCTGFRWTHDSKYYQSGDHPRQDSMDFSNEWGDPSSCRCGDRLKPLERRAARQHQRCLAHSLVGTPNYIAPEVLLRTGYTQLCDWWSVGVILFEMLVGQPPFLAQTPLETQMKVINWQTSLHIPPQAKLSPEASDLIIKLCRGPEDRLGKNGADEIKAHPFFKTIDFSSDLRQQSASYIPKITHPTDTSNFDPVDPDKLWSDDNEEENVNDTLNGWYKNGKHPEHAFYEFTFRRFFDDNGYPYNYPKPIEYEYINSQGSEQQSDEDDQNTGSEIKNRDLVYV

For the molecule `Nc1ccccc1Nc1ccc2c(c1)CCc1ccccc1C2=O`, the Activity worked out at 95% in [1]; 98% in assay [2]; 85% in assay [3]; 96% in assay [4]; 88% in [5]; 98% in [6]. In addition, the Activity was found to be 93% in assay [7], 86% in assay [8] and 87% in [9].
As for `O=C1c2ccc(Nc3ccc(F)cc3F)cc2CCc2ccc(OC[C@H](O)CO)cc21` [Skepinone-L], the Activity was found to be 100% in assay [1]; 97% in [2]; 100% in assay [3]; 90% in [4]; 100% in assay [5]; 100% in [6]. Further, the Activity stood at 76% in assay [7], 100% in assay [8] and 100% in assay [9].
